Entries after “also recorded” stand apart in the source; their conditions may differ.
Tests used:
[1] = tested on: Caco-2 cell monolayers; assay: Caco-2 cell monolayer transport assay; type: in vitro ADME; conditions: apical pH 6.5 to basolateral pH 7.4, 0 mM HNAP
[2] = tested on: rat jejunum; assay: Rat jejunal single-pass perfusion assay; type: in vivo; conditions: for rat jejunal Peff in the absence of HNAP: drug perfused alone, 0 mM HNAP
[3] = Octanol-buffer; conditions: Log PAB versus cLog P of free drug
[4] = in humans; cited from earlier work
[5] = rat, in vivo; cited from earlier work
[6] = tested on: influenza virus neuraminidase; conditions: influenza virus neuraminidase inhibitor; cited from earlier work

Row | Structure (SMILES) | Caco-2 Papp in the absence of HNAP [1] | rat jejunal Peff in the absence of HNAP [2] | increase of log P by ion-pairing with HNAP compared to the free drug [3] [units] | other results
1 | CCOC(=O)C1=C[C@@H](OC(CC)CC)[C@H](NC(C)=O)[C@@H](NC(=N)N)C1 [GO, (3R,4R,5S)-ethyl-4-acetamido-5-guanidino-3-(pentan-3-yloxy)cyclohex-1-enecarboxylate] | no detectable transport | No effective permeability; also recorded: Essentially zero | 3.7 | change of rat jejunal Peff on co-perfusion with HNAP ([2]; co-perfusion with 12 mM HNAP versus drug alone): failed to increase; also recorded: no significant increase
2 | CCOC(=O)C1=C[C@@H](OC(CC)CC)[C@H](NC(C)=O)[C@@H](N)C1 [OSV, oseltamivir] |  |  |  | oral absorption [4]: 60–80%
3 | CCCCCCCOC(=O)C1=C[C@H](NC(=N)N)[C@@H](NC(C)=O)[C@H]([C@H](O)[C@H](O)CO)O1 [ZHE, 5-Acetamido-2,6-anhydro-4-(guanidino)-3,4,5-trideoxy-D-glycero-D-galcto-non-2-enonic acid heptyl ester] | no detectable transport | essentially zero | 1.2 | rat jejunal Peff at 4 mM HNAP ([2]; 4 mM HNAP): 21 ×10⁻⁶ cm/s; rat jejunal Peff at 10 mM HNAP ([2]; 10 mM HNAP): 40 ×10⁻⁶ cm/s
4 | CC(=O)N[C@H]1[C@H]([C@H](O)[C@H](O)CO)OC(C(=O)O)=C[C@@H]1N=C(N)N [ZNV, Zanamivir] |  |  |  | percent of oral dose absorbed (%F) [5]: 4%
5 | CCC(CC)O[C@@H]1C=C(C(=O)O)C[C@H](NC(=N)N)[C@H]1NC(C)=O [active carboxylate of GO] |  |  |  | IC50 [6]: 0.9 nM
